Assay results: ChEMBL document CHEMBL4425112, “1,2-Benzisothiazole Derivatives Bearing 4-, 5-, or 6-Alkyl/arylcarboxamide Moieties Inhibit Carbonic Anhydrase Isoform IX (CAIX) and Cell Proliferation under Hypoxic Conditions” (J Med Chem, 2016)
pIC50, pKi: −log10 of the molar value.

Tests used:
HT-29 [1] = assay: Synergistic cytotoxicity in human HT-29 cells assessed as dose reduction index ratio in presence of CoCl2-induced hypoxic conditions measured at 90 % cell growth inhibition after 72 hrs in presence of compound-5c by cell counter method; assay type: functional
HT-29 [2] = assay: Synergistic cytotoxicity in human HT-29 cells assessed as dose reduction index ratio in presence of CoCl2-induced hypoxic conditions measured at 80 % cell growth inhibition after 72 hrs in presence of compound-5c by cell counter method; assay type: functional
HT-29 [3] = assay: Synergistic cytotoxicity in human HT-29 cells assessed as dose reduction index ratio in presence of CoCl2-induced hypoxic conditions measured at 70 % cell growth inhibition after 72 hrs in presence of compound-5c by cell counter method; assay type: functional
Carbonic anhydrase 9 = Carbonic anhydrase 9 (Homo sapiens, UniProt Q16790); assay: Inhibition of human carbonic anhydrase 9 catalytic site preincubated for 15 mins by stopped flow CO2 hydration assay
Carbonic anhydrase 1 = Carbonic anhydrase 1 (Homo sapiens, UniProt P00915)
Description: Inhibition of human carbonic anhydrase 1 preincubated for 15 mins by stopped flow CO2 hydration assay

Carbonic anhydrase 2 = Carbonic anhydrase 2 (Homo sapiens, UniProt P00918)
Description: Inhibition of human carbonic anhydrase 2 preincubated for 15 mins by stopped flow CO2 hydration assay

Carbonic anhydrase 7 = Carbonic anhydrase 7 (Homo sapiens, UniProt P43166); assay: Inhibition of human carbonic anhydrase 7 preincubated for 15 mins by stopped flow CO2 hydration assay
HT-29 [4] = assay: Antiproliferative activity against human HT-29 cells assessed as reduction in cell viability after 72 hrs by cell counter method; assay type: cell-based; conditions: HT-29, 72 h
[5] = Toxicity in nude mouse xenografted with human HT-29 cells assessed as weight loss at 25 to 50 mg/kg, ip administered qd measured after 16 days; assay type: organism-based; conditions: in vivo, 384 h
[6] = Toxicity in nude mouse xenografted with human HT-29 cells assessed as clinical toxicity at 25 to 50 mg/kg, ip administered qd measured after 16 days; assay type: organism-based; conditions: in vivo, 384 h

Sequence of Carbonic anhydrase 1 (P00915 whole entry): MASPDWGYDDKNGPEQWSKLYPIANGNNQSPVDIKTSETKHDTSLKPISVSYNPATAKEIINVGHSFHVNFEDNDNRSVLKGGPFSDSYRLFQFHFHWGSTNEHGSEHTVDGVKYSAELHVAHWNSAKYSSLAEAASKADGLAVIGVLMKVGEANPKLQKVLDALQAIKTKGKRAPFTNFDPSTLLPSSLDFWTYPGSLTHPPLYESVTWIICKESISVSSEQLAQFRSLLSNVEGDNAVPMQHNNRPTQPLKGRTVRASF
Sequence of Carbonic anhydrase 7 (P43166 whole entry): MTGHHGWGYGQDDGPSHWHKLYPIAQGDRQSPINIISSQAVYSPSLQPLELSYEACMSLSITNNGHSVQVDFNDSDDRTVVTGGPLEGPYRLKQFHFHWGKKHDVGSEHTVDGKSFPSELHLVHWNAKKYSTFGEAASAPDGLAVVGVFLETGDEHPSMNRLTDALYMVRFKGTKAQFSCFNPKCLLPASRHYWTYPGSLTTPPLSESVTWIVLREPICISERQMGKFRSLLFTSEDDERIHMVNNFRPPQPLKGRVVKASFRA

| SMILES | pKi (Carbonic anhydrase 9) | pKi (Carbonic anhydrase 1) | pKi (Carbonic anhydrase 2) | other results |
| --- | --- | --- | --- | --- |
| O=c1[nH]cc(F)c(=O)[nH]1 [FLUOROURACIL] |  |  |  | Ratio (HT-29 [1]): 89.952; Ratio (HT-29 [2]): 15.884; Ratio (HT-29 [3]): 5.017 |
| Cc1ccc(C(=O)Nc2ccc3c(c2)S(=O)(=O)NC3=O)cc1 | 6.27 | < 4.30 | 6.39 |  |
| O=C(Nc1ccc2c(c1)S(=O)(=O)NC2=O)c1ccc(Cl)cc1 | 5.72 | < 4.30 | 5.33 |  |
| O=C(Nc1cccc2c1C(=O)NS2(=O)=O)c1cccc(Br)c1 | 7.51 |  | 6.23 | pKi (Carbonic anhydrase 7): < 4.30; pIC50 (HT-29 [4]): < 4.00 |
| O=C(Nc1ccc2c(c1)C(=O)NS2(=O)=O)c1ccc(F)cc1 | 7.57 |  | 5.16 |  |
| O=C(Nc1ccc2c(c1)C(=O)NS2(=O)=O)c1cccc(Cl)c1 | 7.17 |  | 6.23 | pIC50 (HT-29 [4]): < 4.00; Activity [5]: Non-Toxic; Activity [6]: Non-Toxic |
| O=C(Nc1ccc2c(c1)C(=O)NS2(=O)=O)c1ccc(-c2ccccc2)cc1 | 6.64 | < 4.30 | 7.08 |  |
| O=C(Nc1ccc2c(c1)S(=O)(=O)NC2=O)c1ccccc1 | 6.66 | < 4.30 | 5.14 |  |
| O=C(Nc1ccc2c(c1)C(=O)NS2(=O)=O)c1ccc(Cl)cc1 | 7.06 | < 4.30 | 5.64 |  |
| O=C(Nc1ccc2c(c1)S(=O)(=O)NC2=O)c1cccc(Cl)c1 | 6.63 | < 4.30 | 5.22 |  |
| COc1ccc(C(=O)Nc2ccc3c(c2)C(=O)NS3(=O)=O)cc1 | 7.13 |  | 6.10 |  |
| CCc1c2c(nc3ccc(O)cc13)-c1cc3c(c(=O)n1C2)COC(=O)[C@]3(O)CC [7-ETHYL-10-HYDROXYCAMPTOTHECIN] |  |  |  | Ratio (HT-29 [1]): 7.395; Ratio (HT-29 [2]): 2.039; Ratio (HT-29 [3]): 0.866 |
| CC(=O)Nc1ccc2c(c1)C(=O)NS2(=O)=O | 7.52 |  | 5.83 | pKi (Carbonic anhydrase 7): < 4.30; pIC50 (HT-29 [4]): < 4.00 |
| O=C(Nc1cccc2c1C(=O)NS2(=O)=O)c1ccccc1 | 6.65 | < 4.30 | 6.74 |  |
| O=C(Nc1cccc2c1C(=O)NS2(=O)=O)c1ccc(-c2ccccc2)cc1 | 5.93 | < 4.30 | 6.04 |  |
| O=C(Nc1ccc2c(c1)S(=O)(=O)NC2=O)c1cccc(Br)c1 | 6.18 | < 4.30 | 6.08 |  |
| O=C(Nc1ccc2c(c1)C(=O)NS2(=O)=O)c1cccc(Br)c1 | 7.50 |  | 5.41 |  |
| COc1ccc(C(=O)Nc2ccc3c(c2)S(=O)(=O)NC3=O)cc1 | 6.69 | < 4.30 | 5.16 |  |
| O=C(Nc1ccc2c(c1)S(=O)(=O)NC2=O)c1ccc(F)cc1 | 6.27 | < 4.30 | 6.04 |  |
